The test system of data set [1] is Plasmodium falciparum, malarial strain W2. The data set is described as follows: Antimalarial activity in vitro, growth inhibition, strain W2. The data set is classed as cell-based. The following applies: for IC50: Plasmodium falciparum. On the procedure:
(§1) The antimalarial activity of various hydroxylated artemisinin derivatives obtained via the present method was determined by Drs. S. Anderson and W.K. Milhous at the Division of Experimental Therapeutics, Walter Reed Army Institute of Research, Washington, D.C.
(§2) The malarial strains employed in this survey include D6, W2, and GA3. In Table 2, below, the -pharmacological data are reported as IC-50, indicating the concentration, in ng per ml, of compound required to inhibit growth of the parasite at the 50% level.

In data set [2] the test system is Plasmodium falciparum. The data set is described as follows: Antimalarial activity against the strains tested (summary of in vitro tests). The data set is classed as cell-based. The settings on record: in words. As to the method: as §1, §2
Data set [3] has as its system Plasmodium falciparum, malarial strain D6. The data set is described as follows: Antimalarial activity in vitro, growth inhibition, strain D6. Type of data set: cell-based. The settings on record: for IC50: Plasmodium falciparum. As to the method:
as §1, §2

The subject of data set [4] is Plasmodium falciparum, malarial strain GA3. Kind of data set: Antimalarial activity in vitro, growth inhibition, strain GA3. The data set is classed as cell-based. The following applies: 50% inhibition of parasite growth; for IC50: Plasmodium falciparum. As to the method: as §1, §2
In data set [5] the test system is P. falciparum. The following applies: cited from earlier work.
For data set [6], the system named is Falciparum malaria. The settings on record: cited from earlier work; for reversal of chloroquine-resistance: with chloroquine, reports by Van Dyke et al.
Setting [7] is: strain D6, in vitro, 50% inhibition of parasite growth, read-out: IC-50.
[8] abbreviates: strain W2, in vitro, 50% inhibition of parasite growth, read-out: IC-50.

Values after ≈ are worked out from the molar mass of the structure shown. Where two headings read alike, the source gives them in different places.

As to `CCOC1OC2OC3(C)CCC4C(C)C(O)CC(C1C)C24OO3` (stereo not drawn) [7β-Hydroxyarteether], the IC-50 came out at 2.78 ng/mL in data set [1] (strain W2, in vitro, 50% inhibition of parasite growth); 12.6 ng/mL in data set [3] (strain D6, in vitro, 50% inhibition of parasite growth); 8.83 ng/mL in data set [4]. For the same molecule, in data set [2], the antimalarial activity entry is recorded as “exhibit antimalarial activity against the strains tested”.

`C[C@H]1C(OC(=O)Nc2ccccc2)O[C@@H]2O[C@@]3(C)CC[C@H]4[C@H](CO)CC[C@@H]1[C@@]24OO3` (stereo partly shown) [14-Hydroxy-N-phenylcarbamoyl dihydroartemisinin]: the antimalarial activity result in data set [2] is listed as “exhibit antimalarial activity against the strains tested”. Also, the IC50 in data set [3] (setting [7]) stood at 2 ng/mL (≈ 4.77 nM).

As to `CCOC1OC2OC3(C)CCC4C(CO)CCC(C1C)C24OO3` (stereo not shown) [14-Hydroxyarteether], the values for the IC50 in data set [1] (setting [8]), in data set [3] (setting [7]) and in data set [4] were 2.77 ng/mL (≈ 8.43 nM), 12.6 ng/mL (≈ 38.4 nM) and 8.18 ng/mL (≈ 24.9 nM), respectively. Moreover, the antimalarial activity entry in data set [2] is given as “exhibit antimalarial activity against the strains tested”.

For `CCOC1OC2OC3(C)CCC4C(C)CCC(C1C)C24OO3` (stereo not shown) [Arteether, ethyl ether of dihydroartemisinin], the IC50 worked out at 0.28 ng/mL (≈ 0.896 nM) in data set [1] (setting [8]), 0.73 ng/mL (≈ 2.34 nM) in data set [3] (setting [7]) and 0.498 ng/mL (≈ 1.59 nM) in data set [4].

For `C[C@@H]1CC[C@H]2[C@@H](C)C(=O)O[C@@H]3O[C@@]4(C)CC[C@@H]1[C@]32OO4` [Artemisinin, artemisinin], the IC50 in data set [1] (setting [8]) came out at 0.79 ng/mL (≈ 2.8 nM); in data set [3] (setting [7]), 0.97 ng/mL (≈ 3.44 nM); in data set [4], 1.58 ng/mL (≈ 5.6 nM). The resistance development entry in data set [5] (P. falciparum) is “P. falciparum has not developed resistance”. In data set [5], the speed of action result is given as “act rapidly”. In data set [5], the toxicity entry is reported as “relatively non-toxic”.

With `CCN(CC)CCCC(C)Nc1ccnc2cc(Cl)ccc12` (stereo not shown) [Chloroquine, chloroquine], the IC50 came out at 41.4 ng/mL (≈ 129 nM) in data set [1] (W2) and 6.63 ng/mL (≈ 20.7 nM) in data set [3] (D6).

On to `COc1ccc2cc1Oc1ccc(cc1)C[C@H]1c3cc(c(OC)cc3CCN1C)Oc1c(OC)c(OC)cc3c1[C@H](C2)N(C)CC3` [tetrandrine], for which, in data set [6] (Van Dyke), the “synergy with antimalarial drugs” value is recorded as “act in a synergistic manner to greatly reduce the quantities of drugs required for activity”. Moreover, the reversal of chloroquine-resistance entry in data set [6] is “reverse the chloroquine-resistance in Falciparum malaria”.

Regarding `COc1ccc(CCN(C)CCCC(C#N)(c2ccc(OC)c(OC)c2)C(C)C)cc1OC` (stereo not shown) [verapamil], in data set [6], the “synergy with antimalarial drugs” value is “act in a synergistic manner to greatly reduce the quantities of drugs required for activity” and the reversal of chloroquine-resistance entry was “reverse the chloroquine-resistance in Falciparum malaria”.
